The record followed here is US10017487B2, “Fused heterocyclic compound” (Takeda Pharmaceutical Company Limited, priority 2015, dated 2018).

Structures can show the parent of a compound that is named as a salt.

The target in assay [1] is T1, Human recombinant enteropeptidase (Homo sapiens, UniProt P98073).
T1 construct: purchased ITSI-Biosciences LLC #REN-260
The assay is described as follows: Human enteropeptidase inhibitory activity. To be noted: 3.3 μM test compound; fluorescence intensity at 2 hours after start of reaction; read-out: Inhibition rate at 3.3 μM. It counts as biochemical. The method, then: Human recombinant enteropeptidase (#REN-260, ITSI-Biosciences LLC) was diluted with an assay buffer (50 mM Tricine, pH 8.0, 0.01 (w/v) %, Tween 20, 10 mM CaCl2) to prepare a 24 mU/mL enzyme solution. Subsequently, 5FAM-Abu-Gly-Asp-Asp-Asp-Lys-Ile-Val-Gly-Gly-Lys(CPQ2)-Lys-Lys-NH2 (purity: 97.2%, CPC Scientific Inc., SEQ ID NO: 1) was diluted with the assay buffer to prepare a 2.1 μM substrate solution. A test compound is dissolved in DMSO into a 1 mM solution, and the solution was diluted by 100-fold with the assay buffer to give a compound solution. To a 384-well black plate (#784076, Greiner Bio-One), 5 μL of the compound solution and 5 μL of the substrate solution were added and mixed, and 5 μL of the enzyme solution was then added to the mixture, followed by mixing to start the reaction. The fluorescence intensity was measured with a fluorescence plate reader EnVision (The Perkin-Elmer Corp.) at an excitation wavelength of 485 nm and a fluorescence wavelength of 535 nm. The same reaction as above except that the test compound was not contained was performed (test compound non-addition group). Furthermore, the same reaction as above except that the test compound and the enzyme were not contained was performed (control group). The inhibition rate was calculated using the fluorescence intensity at 2 hours after the start of the reaction by the following expression: Inhibition rate (%)=(1-((fluorescence intensity of test compound addition group)−(fluorescence intensity of control group))/((fluorescence intensity of test compound non-addition group)−(fluorescence intensity of control group)))×100

Assay [2] deals with HFD-fed mouse. The assay is described as follows: Fecal protein concentration-increasing test using HFD-fed mouse. Format: in vivo. Particulars: HFD-fed mice, 10 mg/kg oral, whole feces of first day of administration, group average. The procedure:
High fat diet-fed (HFD-fed) mice (D12079B diet, male, 19-week old) were orally administered with a 0.5% methyl cellulose suspension containing a test compound (10 mg/kg) (compound administration group, six mice per group) or a 0.5% methyl cellulose suspension (compound non-administration group (vehicle), five mice per group), and whole feces were collected on the first day of administration. Dried feces were dissolved in 0.5 N NaOH, followed by centrifugation at 12,000 rpm. The protein concentration in the supernatant was then quantitatively measured (Lowry method), and the amount of protein contained in 1 g of feces was calculated as the fecal protein concentration (mg/g feces). The average of each group is shown below.

Assay [3] has as its system DIO mouse. Kind of assay: Anti-obesity effect test using DIO mouse. It counts as in vivo. To be noted: DIO mice, group average. The method, then:
Diet-induced obesity (DIO) mice (D12079B diet, male, 32-week old) were orally administered with a 0.5% methyl cellulose suspension containing a test compound (30 mg/kg) (compound administration group, six mice per group) or a 0.5% methyl cellulose suspension (compound non-administration group (vehicle), six mice per group) once a day for eight days. The averages of the body weights at the start of administration and after continuous administration for eight days are shown below.

T1 sequence (P98073 whole entry): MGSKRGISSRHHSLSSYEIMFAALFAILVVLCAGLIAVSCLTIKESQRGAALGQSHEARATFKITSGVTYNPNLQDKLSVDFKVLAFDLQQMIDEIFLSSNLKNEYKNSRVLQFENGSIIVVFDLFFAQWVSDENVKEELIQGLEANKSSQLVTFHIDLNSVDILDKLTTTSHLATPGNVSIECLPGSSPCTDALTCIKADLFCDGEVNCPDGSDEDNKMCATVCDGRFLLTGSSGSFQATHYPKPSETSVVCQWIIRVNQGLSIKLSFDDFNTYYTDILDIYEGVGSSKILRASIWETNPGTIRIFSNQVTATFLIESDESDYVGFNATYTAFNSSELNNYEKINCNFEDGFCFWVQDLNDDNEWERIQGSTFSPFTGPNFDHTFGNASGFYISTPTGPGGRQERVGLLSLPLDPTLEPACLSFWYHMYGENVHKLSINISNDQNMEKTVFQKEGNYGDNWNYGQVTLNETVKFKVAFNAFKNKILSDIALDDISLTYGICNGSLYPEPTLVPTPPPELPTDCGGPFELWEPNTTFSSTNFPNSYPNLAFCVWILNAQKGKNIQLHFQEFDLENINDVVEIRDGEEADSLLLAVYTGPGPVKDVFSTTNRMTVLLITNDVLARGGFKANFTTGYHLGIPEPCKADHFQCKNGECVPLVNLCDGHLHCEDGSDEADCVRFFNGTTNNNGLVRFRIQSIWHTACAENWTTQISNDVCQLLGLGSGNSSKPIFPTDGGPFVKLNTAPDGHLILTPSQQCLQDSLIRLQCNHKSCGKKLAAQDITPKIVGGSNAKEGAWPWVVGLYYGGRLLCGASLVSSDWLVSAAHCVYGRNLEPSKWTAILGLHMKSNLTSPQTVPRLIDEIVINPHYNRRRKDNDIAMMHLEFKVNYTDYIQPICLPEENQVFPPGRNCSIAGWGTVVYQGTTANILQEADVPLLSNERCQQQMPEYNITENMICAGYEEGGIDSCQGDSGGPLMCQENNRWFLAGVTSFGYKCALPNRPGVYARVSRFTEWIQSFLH

On to `N=C(N)Nc1ccc(C(=O)Oc2cc3c(c(C4=NOC(CC(=O)O)(C(=O)O)C4)c2)CCO3)cc1` (stereo not drawn) [Example 6, 3-(6-((4-Carbamimidamidobenzoyl)oxy)-2,3-dihydro-1-benzofuran-4-yl)-5-(carboxymethyl)-4,5-dihydro-1,2-oxazole-5-carboxylic acid], for which the inhibition (usually the relative decrease from the control value, in per cent) at 3.3 µM in assay [1] came out at 101%. With `N=C(N)Nc1ccc(C(=O)Oc2cc3c(c(C(=O)NCCS(=O)(=O)O)c2)CCO3)cc1` [Example 1, 2-(((6-((4-Carbamimidamidobenzoyl)oxy)-2,3-dihydro-1-benzofuran-4-yl)carbonyl)amino)ethanesulfonic acid], the inhibition at 3.3 µM in assay [1] was 101%. In assay [2], this compound had a Fecal protein concentration of 188.8 mg/g feces. For the same compound, the “Body weight (g) After continuous administration for 8 days” value in assay [3] (30 mg/kg oral once a day for eight days) stood at 42.8 g. The “Body weight (g) At start of administration” value in assay [3] (30 mg/kg oral once a day, baseline) is listed as 43.5 g. Take `N=C(N)Nc1ccc(C(=O)Oc2cc3c(c(C(=O)NCS(=O)(=O)O)c2)CCO3)cc1` [Example 3, (((6-((4-carbamimidamindobenzoyl)oxy)-2,3-dihydro-1-benzofuran-4-yl)carbonyl)amino)methanesulfonic acid]: the inhibition at 3.3 µM in assay [1] is 101%. `N=C(N)Nc1ccc(C(=O)Oc2cc3c(c(C(=O)NCP(=O)(O)O)c2)CCO3)cc1` [Example 4, ((((6-((4-Carbamimidamidobenzoyl)oxy)-2,3-dihydro-1-benzofuran-4-yl)carbonyl)amino)methyl)phosphonic acid hydrochloride]: the inhibition at 3.3 µM in assay [1] is 101%. Take `CC1(C)Cc2c(cc(OC(=O)c3ccc(NC(=N)N)cc3)cc2C2=NOC(CC(=O)O)(C(=O)O)C2)O1` (stereo not drawn) [Example 5, 3-(6-((4-carbamimidamindobenzoyl)oxy)-2,2-dimethyl-2,3-dihydro-1-benzofuran-4-yl)-5-(carboxymethyl)-4,5-dihydro-1,2-oxazole-5-carboxylic acid]: the inhibition at 3.3 µM in assay [1] worked out at 100%. For `N=C(N)Nc1ccc(C(=O)Oc2cc3c(c(C(=O)NCCCS(=O)(=O)O)c2)CCO3)cc1` [Example 2, 3-(((6-((4-carbamimidamindobenzoyl)oxy)-2,3-dihydro-1-benzofuran-4-yl)carbonyl)amino)propane-1-sulfonic acid], the inhibition at 3.3 µM in assay [1] was determined as 101%.
